*1 amine or outer side, *2 acyl side, *3 side chain or, on linkers, in order; H or OH if unused. Where a SMILES comes first, the peptide text is derived from it. Side-chain parts run from the residue outwards. [ ]: non-standard residue; d: D form. The star is where a group is joined. γGlu = O=C(O)[C@H](CCC(=O)[*:2])N[*:1]; Desaminohistidyl = O=C(CCc1c[nH]cn1)*; Aib = CC(C)(N)C(=O)O
Tests used:
physchem = assay type: physicochemical; conditions: pH 7.5
Source text: Assay (III): ThT Fibrillation Assay for the Assessment of Physical Stability of Peptide Compositions The purpose of this assay is to assess the physical stability of the glucagon derivatives of the invention in aqueous solutions. Low physical stability of a peptide may lead to amyloid fibril formation, which is observed as well-ordered, thread-like macromolecular structures in the sample, which eventually may lead to gel formation. This has traditionally been measured by visual inspection of the sample. However, that kind of measurement is very cumbersome and depending on the observer. Therefore, the application of a small molecule indicator probe is much more advantageous. Thioflavin T (ThT) is such a probe and has a distinct fluorescence signature when binding to fibrils [Naiki et al. (1989) Anal. Biochem. 177, 244-249; LeVine (1999) Methods. Enzymol. 309, 274-284]. Here, as depicted in FIG. 1, F is the ThT fluorescence at the time t. The constant t0 is the time needed to reach 50% of maximum fluorescence. The two important parameters describing fibril formation are the lag-time calculated by t0−2τ and the apparent rate constant kapp 1/τ. Samples were prepared freshly before each assay. Each sample composition is described in the legends. The pH of the sample was adjusted to the desired value using appropriate amounts of concentrated NaOH and HCl. Thioflavin T was added to the samples from a stock solution in H2O to a final concentration of 1 μM. Sample aliquots of 200 μl (250 μM of the glucagon derivative/analogue in 10 mM HEPES buffer, pH 7.5) were placed in a 96 well microtiter plate (Packard OptiPlate™-96, white polystyrene). Usually, four or eight replica of each sample (corresponding to one test condition) was placed in one column of wells. The plate was sealed with Scotch Pad (Qiagen). Incubation at given temperature, shaking and measurement of the ThT fluorescence emission were done in a Fluoroskan Ascent FL fluorescence platereader (Thermo Labsystems). The plate was incubated 37° C. with orbital shaking adjusted to 960 rpm with an amplitude of 1 mm. Fluorescence measurement was done using excitation through a 444 nm filter and measurement of emission through a 485 nm filter. Each run was initiated by incubating the plate at the assay temperature for 10 min. The plate was measured every 20 minutes for a desired period of time. Between each measurement, the plate was shaken and heated as described. After completion of the ThT assay the four or eight replica of each sample was pooled and centrifuged at 20000 rpm for 30 minutes at 18° C. The supernatant was filtered through a 0.22 μm filter and an aliquot was transferred to a HPLC vial. The concentration of peptide in the initial sample and in the filtered supernatant was determined by reverse phase HPLC using an appropriate standard as reference. The percentage fraction the concentration of the filtered sample constituted of the initial sample concentration was reported as the recovery. The measurement points were saved in Microsoft Excel format for further processing and curve drawing and fitting was performed using GraphPad Prism. The background emission from ThT in the absence of fibrils was negligible. The data points were typically a mean of four or eight samples and shown with standard deviation error bars. Only data obtained in the same experiment (i.e. samples on the same plate) were presented in the same graph ensuring a relative measure of fibrillation between experiments. The data set may be fitted to Eq. (1).

human glucagon receptor = target: T1, human glucagon receptor (Homo sapiens, UniProt P47871); test: Assay (I)(b): glucagon receptor activation, CRE luciferase reporter gene assay in BHK cells; assay type: cell-based; conditions: BHK cells expressing human glucagon receptor and CRE luciferase, 3 h incubation; read-out: EC50 hGlucagonR
T1 construct: expressed in transfected cells; host or cells: BHK cells, clone BHK hGCGR A3*25; isolated membranes
T1 sequence (P47871 26-477): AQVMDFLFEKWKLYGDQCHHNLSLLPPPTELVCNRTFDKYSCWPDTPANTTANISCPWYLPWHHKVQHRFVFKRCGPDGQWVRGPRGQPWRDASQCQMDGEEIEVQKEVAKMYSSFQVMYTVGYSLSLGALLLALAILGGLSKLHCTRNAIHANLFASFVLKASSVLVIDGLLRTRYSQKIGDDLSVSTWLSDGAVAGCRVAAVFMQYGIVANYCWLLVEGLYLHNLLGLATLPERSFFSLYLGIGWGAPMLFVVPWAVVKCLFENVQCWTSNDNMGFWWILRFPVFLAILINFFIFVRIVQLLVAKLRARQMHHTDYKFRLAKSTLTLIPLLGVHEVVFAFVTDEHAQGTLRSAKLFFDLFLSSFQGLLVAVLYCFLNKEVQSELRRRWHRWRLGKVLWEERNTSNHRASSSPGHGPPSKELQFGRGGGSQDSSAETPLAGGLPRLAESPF
Description: The purpose of this assay is to test the activity, or potency, of the derivatives of the invention, in vitro. The in vitro potency is the measure of human GLP-1 receptor and/or glucagon receptor activation, respectively, in a whole cell assay.
In vitro potency was determined by measuring the response of human GLP-1 or glucagon receptor, respectively, in a reporter gene assay. The assay was performed in a stably transfected BHK cell line that expressed either the human GLP-1 receptor or the human glucagon receptor and contained the DNA for the cAMP response element (CRE) coupled to a promoter and the gene for firefly luciferase (CRE luciferase). […] When assay incubation was completed, the luciferase substrate (luciferin) was added and the enzyme converted luciferin to oxyluciferin and produced bioluminescence. The luminescence was measured as the readout for the assay.
(b) Glucagon Receptor Activation
The cells used in this assay (clone pLJ6′-4-25) were BHK cells with BHK570 as a parent cell line expressing the CRE luciferase gene (clone BHK/KZ10-20-48) and were established by further transfection with the human glucagon receptor (clone pLJ6′ in pHZ-1 vector).
The cells were cultured at 5% CO2 in DMEM medium with 10% FBS, 1× GlutaMAX, 1 mg/mL G418, 240 nM MTX (methotrexate) and 1% pen/strep (penicillin/streptomycin). They were aliquoted and stored in liquid nitrogen. Before each assay, an aliquot was taken up and washed three times in PBS before being suspended at the desired concentration in assay buffer. For 96-well plates the suspension was made to give a final concentration of 5×10 EE3 cells/well.
Assay Medium consisted of DMEM w/o phenol red, 10 mM Hepes, lx GlutaMAX, 2% Ovalbumin and 0.2% Pluronic F-68.
Cell stocks were thawed in a 37° C. water bath. Cells were washed three times in PBS. The cells were counted and adjusted to 5×10 EE3 cells/50 μl (1×10 EE5 cells/mL) in Assay Medium. A 50 μl aliquot of cells was transferred to each well in the assay plate.
Stocks of the test compounds and reference compounds were diluted to a concentration of […] in Assay Medium. Compounds were diluted 10-fold to give the following concentrations: […], 2×10 EE-7 M, 2×10 EE-8 M; 2×10 EE-9 M, 2×10 EE-10 M, 2×10 EE-11 M, 2×10 EE-12 M and 2×10 EE-13 M. For each compound a blank assay buffer control was also included.
A 50 μl aliquot of compound or blank was transferred from the dilution plate to the assay plate. Compounds were tested at the following final concentrations: 1×10 EE-6 M, 1×10 EE-7 M, 1×10 EE-8 M; 1×10 EE-9 M, 1×10 EE-10 M, 1×10 EE-11 M and 1×10 EE-12 M and 1×10 EE-13 M.
The assay plate was incubated for 3 h in a 5% CO2 incubator at 37° C. The assay plate was removed from the incubator and allowed to stand at room temperature for 15 min. A 100 μl aliquot of steadylite plus reagent was added to each well of the assay plate (reagent is light sensitive). Each assay plate was covered with aluminum foil to protect it from light and shaken for 30 min at room temperature. Each assay plate was read in a Packard TopCount NXT instrument.
The data from the TopCount instrument was transferred to GraphPad Prism software. The software performed a non-linear regression (log(agonist) vs response-Variable slope (four parameter)). EC50 values were calculated by the software and reported in pM.

CC(=O)N[C@@H](CCC(=O)N[C@@H](CCC(=O)N[C@@H](CCC(=O)N[C@@H](CCC(=O)NCCCC[C@H](NC(=O)[C@@H](NC(=O)[C@H](CO)NC(=O)[C@H](CC(C)C)NC(=O)[C@H](CC(C)C)NC(=O)[C@H](Cc1c[nH]c2ccccc12)NC(=O)[C@H](CCC(N)=O)NC(=O)[C@@H](NC(=O)[C@H](Cc1ccccc1)NC(=O)[C@H](CCC(=O)O)NC(=O)[C@H](CCC(N)=O)NC(=O)[C@H](C)NC(=O)[C@H](CCCNC(=N)N)NC(=O)[C@H](CCCNC(=N)N)NC(=O)[C@H](CO)NC(=O)[C@H](CCC(=O)O)NC(=O)[C@H](CC(C)C)NC(=O)[C@H](Cc1ccc(O)cc1)NC(=O)[C@H](CCCCN)NC(=O)[C@H](CO)NC(=O)[C@H](Cc1ccc(O)cc1)NC(=O)[C@H](CC(=O)O)NC(=O)[C@H](CO)NC(=O)[C@@H](NC(=O)[C@H](Cc1ccccc1)NC(=O)[C@@H](NC(=O)CNC(=O)[C@H](Cc1c[nH]cn1)NC(=O)[C@H](CO)NC(=O)CCc1c[nH]cn1)[C@@H](C)O)[C@@H](C)O)C(C)C)[C@@H](C)O)C(=O)O)C(=O)O)C(=O)O)C(=O)O)C(=O)O [Example 16, N^α([Imp1, His3, Glu15, Glu21, Leu27, Ser28]-Glucagonyl)-N{Epsilon}[(4S)-4-[[(4S)-4-[[(4S)-4-[[(4S)-4-acetamido-4-carboxybutanoyl]amino]-4-carboxybutanoyl]amino]-4-carboxybutanoyl]amino]-4-carboxybutanoyl]Lys] (Desaminohistidyl-SHGTFTSDYSKYLESRRAQEFVQWLLSTK([γGlu-γGlu-γGlu-γGlu-Ac])-OH)
recovery at 250 μM (physchem): 61% | EC50 (human glucagon receptor): 4 pM

CC(=O)N[C@@H](CCC(=O)N[C@@H](CCC(=O)N[C@@H](CCC(=O)N[C@@H](CCC(=O)NCCCC[C@H](NC(=O)[C@@H](NC(=O)[C@H](Cc1ccccc1)NC(=O)[C@H](CC(=O)O)NC(=O)[C@H](CCC(N)=O)NC(=O)[C@H](C)NC(=O)[C@H](CCCNC(=N)N)NC(=O)[C@H](CCCNC(=N)N)NC(=O)[C@H](CO)NC(=O)[C@H](CCC(=O)O)NC(=O)[C@H](CC(C)C)NC(=O)[C@H](Cc1ccc(O)cc1)NC(=O)[C@H](CCCCN)NC(=O)[C@H](CO)NC(=O)[C@H](Cc1ccc(O)cc1)NC(=O)[C@H](CC(=O)O)NC(=O)[C@H](CO)NC(=O)[C@@H](NC(=O)[C@H](Cc1ccccc1)NC(=O)[C@@H](NC(=O)CNC(=O)[C@H](Cc1c[nH]cn1)NC(=O)C(C)(C)NC(=O)CCc1c[nH]cn1)[C@@H](C)O)[C@@H](C)O)C(C)C)C(=O)N[C@@H](Cc1c[nH]c2ccccc12)C(=O)N[C@@H](CC(C)C)C(=O)N[C@@H](CC(C)C)C(=O)N[C@@H](CO)C(=O)N[C@H](C(=O)O)[C@@H](C)O)C(=O)O)C(=O)O)C(=O)O)C(=O)O [Example 2, N^ϵ24-[(4S)-4-[[(4S)-4-[[(4S)-4-[[(4S)-4-acetamido-4-carboxybutanoyl]amino]-4-carboxybutanoyl]amino]-4-carboxybutanoyl]amino]-4-carboxybutanoyl]-[Imp1, Aib2, His3, Glu15, Lys24, Leu27, Ser28]-Glucagon] (Desaminohistidyl-[Aib]HGTFTSDYSKYLESRRAQDFVK([γGlu-γGlu-γGlu-γGlu-Ac])WLLST-OH)
recovery at 250 μM (physchem): 104% | EC50 (human glucagon receptor): 5 pM

CC(=O)N[C@@H](CCC(=O)N[C@@H](CCC(=O)N[C@@H](CCC(=O)N[C@@H](CCC(=O)NCCCC[C@H](NC(=O)[C@H](CCC(N)=O)NC(=O)[C@H](C)NC(=O)[C@H](CCCNC(=N)N)NC(=O)[C@H](CCCNC(=N)N)NC(=O)[C@H](CO)NC(=O)[C@H](CCC(=O)O)NC(=O)[C@H](CC(C)C)NC(=O)[C@H](Cc1ccc(O)cc1)NC(=O)[C@H](CCCCN)NC(=O)[C@H](CO)NC(=O)[C@H](Cc1ccc(O)cc1)NC(=O)[C@H](CC(=O)O)NC(=O)[C@H](CO)NC(=O)[C@@H](NC(=O)[C@H](Cc1ccccc1)NC(=O)[C@@H](NC(=O)CNC(=O)[C@H](Cc1c[nH]cn1)NC(=O)[C@H](CO)NC(=O)CCc1c[nH]cn1)[C@@H](C)O)[C@@H](C)O)C(=O)N[C@@H](Cc1ccccc1)C(=O)N[C@H](C(=O)N[C@@H](CCC(N)=O)C(=O)N[C@@H](Cc1c[nH]c2ccccc12)C(=O)N[C@@H](CC(C)C)C(=O)N[C@@H](CC(C)C)C(=O)N[C@@H](CO)C(=O)N[C@H](C(=O)O)[C@@H](C)O)C(C)C)C(=O)O)C(=O)O)C(=O)O)C(=O)O [Example 13, Nϵ^21-[(4S)-4-[[(4S)-4-[[(4S)-4-[[(4S)-4-acetamido-4-carboxybutanoyl]amino]-4-carboxybutanoyl]amino]-4-carboxybutanoyl]amino]-4-carboxybutanoyl]-[Imp1, His3, Glu15, Lys21, Leu27, Ser28]-Glucagon] (Desaminohistidyl-SHGTFTSDYSKYLESRRAQK([γGlu-γGlu-γGlu-γGlu-Ac])FVQWLLST-OH)
recovery at 250 μM (physchem): 39% | EC50 (human glucagon receptor): 17 pM

From patent US9963496B2, “Stable glucagon analogues and use for treatment of hypoglycaemia” (Novo Nordisk A/S, priority 2014, dated 2018)
